Patent publication US8192962B2, “Processes for detecting toxic substances” (Daikin Industries, Ltd., priority 2001, dated 2012)

Tested on: Unknown protein yeast genes
Experiment: DNA chip mRNA expression in yeast, unknown protein yeast genes (Table 1)
Assay type: cell-based, Saccharomyces cerevisiae S288C
Outline: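 Untreated cultures served as reference for log-phase S288C yeast given a growth-inhibiting, non-lethal toxicant dose for 2 h at 25° C. in YPD. Gene expression was measured on a whole-genome DNA chip from Cy3/Cy5-labeled cDNA.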

Measured: The level of expressed mRNA in the presence of chemical substance/The level of expressed mRNA in the absence of chemical substance

manganese ethylenebis(dithiocarbamate) [(8)]
3.7: yeast gene YOL150C
0.9: yeast gene YNL092W, incubated two hours with chemical substance | yeast gene YOR197W, incubated two hours with chemical substance | yeast gene YPR023C, incubated two hours with chemical substance
1.2: yeast gene YKL195W, incubated two hours with chemical substance | yeast gene YLR152C, incubated two hours with chemical substance | yeast gene YMR095C, incubated two hours with chemical substance | yeast gene YNL156C, incubated two hours with chemical substance | yeast gene YNL281W, incubated two hours with chemical substance | yeast gene YPL196W, incubated two hours with chemical substance
1.0: yeast gene YLR194C, incubated two hours with chemical substance | yeast gene YLR324W, incubated two hours with chemical substance | yeast gene YLR350W, incubated two hours with chemical substance | yeast gene YMR102C, incubated two hours with chemical substance | yeast gene YMR295C, incubated two hours with chemical substance | yeast gene YPL087W, incubated two hours with chemical substance | yeast gene YPL206C, incubated two hours with chemical substance
3.9: yeast gene YMR090W
0.8: yeast gene YNL115C, incubated two hours with chemical substance | yeast gene YOL036W, incubated two hours with chemical substance
1.9: yeast gene YMR184W, incubated two hours with chemical substance
1.4: yeast gene YLR387C, incubated two hours with chemical substance | yeast gene YMR009W, incubated two hours with chemical substance | yeast gene YPR151C, incubated two hours with chemical substance
1.6: yeast gene YMR316W, incubated two hours with chemical substance | yeast gene YOL071W, incubated two hours with chemical substance | yeast gene YOL162W, incubated two hours with chemical substance
0.7: yeast gene YML117W, incubated two hours with chemical substance | yeast gene YNL305C, incubated two hours with chemical substance | yeast gene YPL222W, incubated two hours with chemical substance
1.1: yeast gene YLR054C, incubated two hours with chemical substance | yeast gene YLR149C, incubated two hours with chemical substance | yeast gene YMR067C, incubated two hours with chemical substance | yeast gene YMR191W, incubated two hours with chemical substance | yeast gene YNR068C, incubated two hours with chemical substance | yeast gene YOL047C, incubated two hours with chemical substance | yeast gene YOL082W, incubated two hours with chemical substance | yeast gene YOL117W, incubated two hours with chemical substance | yeast gene YOL131W, incubated two hours with chemical substance | yeast gene YOR019W, incubated two hours with chemical substance
1.5: yeast gene YMR097C, incubated two hours with chemical substance | yeast gene YOL032W, incubated two hours with chemical substance
0.6: yeast gene YNL074C, incubated two hours with chemical substance
1.8: yeast gene YMR180C, incubated two hours with chemical substance | yeast gene YNL044W, incubated two hours with chemical substance
8.1: yeast gene YLR460C
1.3: yeast gene YKR091W, incubated two hours with chemical substance | yeast gene YMR107W, incubated two hours with chemical substance | yeast gene YNL234W, incubated two hours with chemical substance | yeast gene YOL083W, incubated two hours with chemical substance
